Assay results published in ChEMBL document CHEMBL1201862, “PubChem BioAssay data set” (2004).
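These data come from cells grown in 96-well plates and exposed to compound for 48 hours at five concentrations. The concentration for 50% growth inhibition is given as GI50.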 Activity calls are given as the source filed them. Cut-off read from the data, not from the text of the source: active = GI50 up to about 1.1 µM and inactive = higher.

What was measured:
Experiment in all cases: growth of human tumour cells (NCI), 48 h
786-0 = test system: 786-0
A498 = test system: A498
A549 = test system: A549
ACHN = test system: ACHN
CAKI-1 = test system: CAKI-1
CCRF-CEM = test system: CCRF-CEM
COLO 205 = test system: COLO 205
DLD-1 = test system: DLD-1
DMS-114 = test system: DMS-114
DMS-273 = test system: DMS-273
EKVX = test system: EKVX
HCC 2998 = test system: HCC 2998
HCT-116 = test system: HCT-116
HCT-15 = test system: HCT-15
HL-60 = test system: HL-60
HOP-18 = test system: HOP-18
HOP-62 = test system: HOP-62
HOP-92 = test system: HOP-92
HT-29 = test system: HT-29
IGROV-1 = test system: IGROV-1
K562 = test system: K562
KM-20L2 = test system: KM-20L2
KM12 = test system: KM12
LOX IMVI = test system: LOX IMVI
LXFL 529 = test system: LXFL 529
M14 = test system: M14
M19-MEL = test system: M19-MEL
MOLT-4 = test system: MOLT-4
Malme-3M = test system: Malme-3M
NCI-H226 = test system: NCI-H226
NCI-H23 = test system: NCI-H23
NCI-H460 = test system: NCI-H460
NCI-H522 = test system: NCI-H522
OVCAR-3 = test system: OVCAR-3
OVCAR-4 = test system: OVCAR-4
OVCAR-5 = test system: OVCAR-5
OVCAR-8 = test system: OVCAR-8
RXF 393 = test system: RXF 393
RXF 631 = test system: RXF 631
SF-268 = test system: SF-268
SF-295 = test system: SF-295
SF-539 = test system: SF-539
SK-MEL-28 = test system: SK-MEL-28
SK-MEL-2 = test system: SK-MEL-2
SK-MEL-5 = test system: SK-MEL-5
SK-OV-3 = test system: SK-OV-3
SN12C = test system: SN12C
SNB-19 = test system: SNB-19
SNB-75 = test system: SNB-75
SNB-78 = test system: SNB-78
SR = test system: SR
SW-620 = test system: SW-620
TK-10 = test system: TK-10
U-251 = test system: U-251
UACC-257 = test system: UACC-257
UACC-62 = test system: UACC-62
UO-31 = test system: UO-31
XF498 = test system: XF498

SMILES: O=C(/C=C/c1ccccc1O)c1ccccc1Cl
- GI50 (786-0): 92.5 µM (inactive)
- GI50 (A498): 90.4 µM (inactive)
- GI50 (A549): > 100 µM (inactive)
- GI50 (ACHN): 51.5 µM (inactive)
- GI50 (CAKI-1): 49.8 µM (inactive)
- GI50 (CCRF-CEM): 19.3 µM (inactive)
- GI50 (COLO 205): 33 µM (inactive)
- GI50 (DLD-1): 50.1 µM (inactive)
- GI50 (DMS-114): 21.3 µM (inactive)
- GI50 (DMS-273): 40.2 µM (inactive)
- GI50 (EKVX): 41.6 µM (inactive)
- GI50 (HCC 2998): 38.1 µM (inactive)
- GI50 (HCT-116): 48.6 µM (inactive)
- GI50 (HCT-15): 28.6 µM
- GI50 (HL-60): 15.3 µM (inactive)
- GI50 (HOP-18): 49.4 µM (inactive)
- GI50 (HOP-62): 75.7 µM (inactive)
- GI50 (HOP-92): 28.8 µM (inactive)
- GI50 (HT-29): > 100 µM (inactive)
- GI50 (IGROV-1): 32.6 µM (inactive)
- GI50 (K562): 23.4 µM (inactive)
- GI50 (KM-20L2): > 100 µM (inactive)
- GI50 (KM12): 24.6 µM (inactive)
- GI50 (LOX IMVI): 24.9 µM (inactive)
- GI50 (LXFL 529): 30.5 µM (inactive)
- GI50 (M14): 54.5 µM (inactive)
- GI50 (M19-MEL): 64.6 µM (inactive)
- GI50 (MOLT-4): 30.7 µM (inactive)
- GI50 (Malme-3M): > 100 µM (inactive)
- GI50 (NCI-H226): > 100 µM (inactive)
- GI50 (NCI-H23): 21.1 µM (inactive)
- GI50 (NCI-H460): 34 µM (inactive)
- GI50 (NCI-H522): 31.3 µM (inactive)
- GI50 (OVCAR-3): 38.1 µM (inactive)
- GI50 (OVCAR-4): 19.2 µM (inactive)
- GI50 (OVCAR-5): > 100 µM (inactive)
- GI50 (OVCAR-8): 58.6 µM (inactive)
- GI50 (RXF 393): 43.1 µM (inactive)
- GI50 (RXF 631): 52.7 µM (inactive)
- GI50 (SF-268): 44.5 µM (inactive)
- GI50 (SF-295): > 100 µM (inactive)
- GI50 (SF-539): 44.5 µM (inactive)
- GI50 (SK-MEL-28): > 100 µM (inactive)
- GI50 (SK-MEL-2): 61.5 µM (inactive)
- GI50 (SK-MEL-5): 42.3 µM (inactive)
- GI50 (SK-OV-3): 45.8 µM (inactive)
- GI50 (SN12C): 56.4 µM (inactive)
- GI50 (SNB-19): 45.1 µM (inactive)
- GI50 (SNB-75): 14.8 µM (inactive)
- GI50 (SNB-78): 47.2 µM (inactive)
- GI50 (SR): 27.7 µM (inactive)
- GI50 (SW-620): 35.5 µM (inactive)
- GI50 (TK-10): 90.4 µM (inactive)
- GI50 (U-251): 39.9 µM (inactive)
- GI50 (UACC-257): > 100 µM (inactive)
- GI50 (UACC-62): 67.5 µM (inactive)
- GI50 (UO-31): 52.4 µM (inactive)
- GI50 (XF498): 40.5 µM (inactive)
